Results as given in patent US20130150335A1, “PACLITAXEL/STEROIDAL COMPLEX” (Institute of Mataria Medica, Chinese Academy of Medical …, priority 2009, published 2013).
In brackets after ≈: the same amount, converted by molar mass. Read-outs that look alike come from different tables or passages of the source.

Experiments:
[1] = Solubility of paclitaxel/lipid complex in oil (soybean oil, MCO, mixed oil); assay type: physicochemical; conditions: for solubility at 1 h: saturated solution
Experimental: Take 4 g of paclitaxel, add cholesterol, 7-dehydrocholesterol and ergosterol respectively in accordance with the amount ratio as stated in Table 2 below, move to a rotary evaporator together, dissolve with 500 ml of acetone each, mix at 45° C. for 1 hour then remove the solvent by the rotary evaporation method, vacuum dry at 65° C. for 15 hours. Take a quantity of each complex formed, add 20 g of soybean oil for injection used, heat in water bath for 1 hour and shake, obtain saturated solutions.
Using acetone as the solvent, the molar ratio of paclitaxel to cholesterol being 1:1, the reaction temperature at 35° C., the reaction time being 0.5 h, the effect of the paclitaxel concentration (16.0, 8.0, 4.0, 2.0, 1.0 and 0.5 mg/ml) on the complex preparation was investigated.
Filter the solution, take a quantity of the successive filtrate, dilute with absolute ethanol, carry out an HPLC analysis, calculate the solubility of complex in oil; take a quantity of paclitaxel, repeat the procedure.

[2] = Solubility of paclitaxel cholesterol complex in n-octanol; assay type: physicochemical; conditions: organic solvent or mixture, thermodynamic from solid, 25° C., saturated solution, read-out: drug solubility in n-octanol
Experimental: Take 5 ml of the solution, filter by 0.45 μm of membrane, take an amount of the successive filtrate, dilute with absolute ethanol, carry out the ultraviolet spectrophotometry method, calculate the apparent solubility of the physical mixture and cholesterol in n-octanol, compared the results with paclitaxel.

drug solubility in vegetable oil: Mixed oil ([1]; Table 4, soybean oil and MEDIUM CHAIN OIL (volume ratio of 1:1), 60° C.): 1360 µg/mL | solubility at 1 h ([1]; medium chain oil (MCO), oil or lipid, thermodynamic from solid, Table 4, MEDIUM CHAIN OIL, 60° C., read-out: drug solubility in vegetable oil: MCO): 2370 µg/mL (≈ 2780 µM) | solubility at 1 h ([1]; oil or lipid, thermodynamic from solid, Table 4, soybean oil for injection, 60° C., read-out: drug solubility in vegetable oil: Soybean oil): 270 µg/mL (≈ 316 µM) | solubility at 1 h ([1]; soybean oil for injection, oil or lipid, thermodynamic from solid, Table 2, effect of paclitaxel/steroid amount ratio, HPLC, read-out: Solubility in soybean oil): 270 µg/mL | solubility ([1]; soybean oil, oil or lipid, thermodynamic from solid, Table 1, complexes per CN200810168213.X, calculated as paclitaxel): 270 µg/mL (≈ 316 µM) | solubility at 24 h [2]: 8860 µg/mL (≈ 10400 µM)
Structure (SMILES): CC(=O)O[C@H]1C(=O)[C@@]2(C)[C@H]([C@H](OC(=O)c3ccccc3)[C@]3(O)C[C@H](OC(=O)[C@H](O)[C@@H](NC(=O)c4ccccc4)c4ccccc4)C(C)=C1C3(C)C)[C@]1(OC(C)=O)CO[C@@H]1C[C@@H]2O [Paclitaxel]
